In patent US20030176479A1, “Use of selective EP4 receptor agonists for the treatment of liver failure, loss of patency of the ductus arteriosus, glaucoma or ocular hypertension” (priority 2002, published 2003) one finds IC50 data, which are given here for 6 compounds.

Common to all, as to conditions: displacement of 3H-prostaglandin E2, 293S membranes, 1 hour at 25° C.
In one experiment the target is T1, rat EP4 receptor (Rattus norvegicus, UniProt P43114).
T1 construct: expressed in transfected cells
T1 sequence (P43114 whole entry): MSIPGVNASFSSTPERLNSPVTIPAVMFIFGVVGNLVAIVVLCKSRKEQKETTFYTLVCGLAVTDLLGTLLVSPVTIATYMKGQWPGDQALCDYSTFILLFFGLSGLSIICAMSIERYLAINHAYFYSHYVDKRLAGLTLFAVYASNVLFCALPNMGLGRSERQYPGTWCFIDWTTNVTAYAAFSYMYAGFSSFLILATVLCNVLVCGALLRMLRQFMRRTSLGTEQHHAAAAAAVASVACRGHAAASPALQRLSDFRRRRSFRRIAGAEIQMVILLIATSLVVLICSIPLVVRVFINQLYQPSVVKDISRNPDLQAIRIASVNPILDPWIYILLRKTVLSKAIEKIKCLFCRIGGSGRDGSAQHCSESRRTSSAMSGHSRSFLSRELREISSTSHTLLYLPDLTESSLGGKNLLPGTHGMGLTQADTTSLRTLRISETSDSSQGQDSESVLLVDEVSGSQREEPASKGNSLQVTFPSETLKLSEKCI
Put plainly: Rat EP4 receptor binding assay (3H-PGE2 displacement, 293S cell membranes). An excerpt: (§1) The compounds of Formula I or II, which are useful in the methods of the present invention, bind to the prostaglandin E2 type 4 receptor (EP4 receptor). The full-length coding sequence for the human EP1 receptor is made in accordance with the procedure in Funk et al., Journal of Biological Chemistry, 1993, 268, 26767-26772. The full-length rat EP2 receptor is made in accordance with the procedure in Nemoto et al., Prostaglandins and other Lipid Mediators, 1997, 54, 713-725. The full-length coding sequence for the human EP3 receptor is made in accordance with the procedure in Regan et al., British Journal of Pharmacology, 1994, 112, 377-385. The full-length coding sequence for the rat EP4 receptor is made in accordance with the procedure in Sando et al., Biochem. Biophys. Res. Comm. 1994, 200,1329-1333. These full-length receptors are used to prepare 293S cells expressing the human EP1, rat EP2, human EP3 or rat EP4 receptors.
(§2) Human EP1, Rat EP2, Human EP3, Rat EP4 Receptor Binding Assay
(§3) The full-length receptors described above are used to prepare 293S cells expressing the EP1, EP2, EP3, and EP4 receptors.
(§4) 293S cells expressing either the human EP1, rat EP2, human EP3 or rat EP4 prostaglandin E2 receptors are generated according to methods known to those skilled in the art. Typically, PCR (polymerase chain reaction) primers corresponding to the 5′ and 3′ ends of the published full length receptor are made according to the well known methods disclosed above and are used in an RT-PCR (reverse transcriptase-polymerase chain reaction) reaction using the total RNA from human kidney (for EP1), rat kidney (for EP2), human lung (for EP3), or rat kidney (EP4) as a source. PCR products are cloned by the TA overhang method into pCR2.1 (Invitrogen Corporation, Carlsbad, Calif.) and identity of the cloned receptor is confirmed by DNA sequencing. For expression of the rat EP2 receptor, the confirmed cDNA is subcloned into the mammalian expression vector PURpCl, a vector generated by subcloning the selectable marker for puromycin resistance into the mammalian expression vector pCl (Promega, Madison, Wis.)
(§5) 293S cells are transfected with either the cloned human EP1 or EP3 receptor in pcDNA3 by electroporation. Stable cell lines expressing either the human EP1 or EP3 receptor are established following selection of transfected cells with G418. 293S cells are transfected with the cloned rat EP2 receptor in PURpCi by lipid mediated transfection. Stable cell lines expressing the rat EP2 receptor are established following selection of transfected cells with puromycin. 293S cells are transfected with the cloned rat EP4 receptor in pcDNA3 by lipid mediated transfection. Stable cell lines expressing the rat EP4 receptor are established following selection of transfected cells with Geneticin® (Invitrogen, Carlsbad, Calif.).
(§6) Clonal cell lines expressing the maximal number of receptors are chosen following a whole cell ^3H-PGE2 binding assay using unlabeled PGE2 as a competitor.
(§7) Membrane Preparation: All operations are performed at 4° C. Transfected cells expressing either prostaglandin E2 type 1, type 2, type 3, or type 4 (EP1, EP2, EP3, or EP4, respectively) receptors are harvested and suspended to 2 million cells per ml in Buffer A [50 mM Tris-HCl (pH 7.4), 10 mM MgCI2, 1 mM EDTA, 1 mM Pefabloc peptide, (Boehringer Mannheim Corp., Indianapolis, Ind.), 10 uM Phosporamidon peptide, (Sigma, St. Louis, Mo.), 1 uM pepstatin A peptide, (Sigma, St. Louis, Mo.), 10 uM elastatinal peptide, (Sigma, St. Louis, Mo.), 100 uM antipain peptide, (Sigma, St. Louis, Mo.)]. The cells are lysed by sonification with a Branson Sonifier (Branson Ultrasonics Corporation, Danbury, Conn.) in 2 fifteen-second bursts. Unlysed cells and debris are removed by centrifugation at 100 ×g for 10 min. Membranes are then harvested by centrifugation at 45,000×g for 30 minutes. […]

Another experiment addresses T2, rat EP2 receptor (Rattus norvegicus, UniProt Q62928).
T2 construct: The full-length rat EP2 receptor is made in accordance with the procedure in Nemoto et al; expressed in transfected cells
The experiment in a line: Rat EP2 receptor binding assay (3H-PGE2 displacement, 293S cell membranes).
Excerpt: as §1, §2, §3, §4, §5, §6, §7

The target in a further experiment is T3, human EP1 receptor (Homo sapiens, UniProt P34995).
T3 construct: expressed in transfected cells
T3 sequence (P34995 1-402): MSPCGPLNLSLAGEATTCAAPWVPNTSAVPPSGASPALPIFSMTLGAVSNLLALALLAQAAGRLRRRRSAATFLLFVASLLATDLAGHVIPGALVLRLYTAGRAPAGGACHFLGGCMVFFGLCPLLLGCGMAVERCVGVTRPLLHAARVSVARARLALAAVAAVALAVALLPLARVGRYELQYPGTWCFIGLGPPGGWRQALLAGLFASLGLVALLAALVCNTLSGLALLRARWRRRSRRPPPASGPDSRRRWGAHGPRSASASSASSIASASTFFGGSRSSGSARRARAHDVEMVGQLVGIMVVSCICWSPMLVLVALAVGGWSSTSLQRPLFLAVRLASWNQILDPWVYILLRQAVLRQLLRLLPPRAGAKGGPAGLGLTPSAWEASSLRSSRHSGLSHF
The experiment in a line: Human EP1 receptor binding assay (3H-PGE2 displacement, 293S cell membranes).
Excerpt: as §1, §2, §3, §4, §5, §6, §7

T2 sequence (Q62928 whole entry): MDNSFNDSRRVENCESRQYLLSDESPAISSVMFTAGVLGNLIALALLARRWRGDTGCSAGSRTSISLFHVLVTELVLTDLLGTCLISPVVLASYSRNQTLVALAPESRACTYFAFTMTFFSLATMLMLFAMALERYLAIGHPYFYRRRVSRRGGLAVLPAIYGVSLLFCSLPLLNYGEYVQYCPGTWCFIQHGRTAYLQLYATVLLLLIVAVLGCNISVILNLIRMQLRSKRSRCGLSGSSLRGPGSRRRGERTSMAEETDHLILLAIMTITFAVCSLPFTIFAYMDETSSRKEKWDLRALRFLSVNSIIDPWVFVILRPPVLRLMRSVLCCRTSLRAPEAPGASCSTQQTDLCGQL

For the compound `O=C(O)CCCCCCN1C(=O)CC[C@@H]1CC[C@@H](O)Cc1cccc(Cl)c1` [Example 1, 7-{2S-[4-(3-Chloro-phenyl)-3R-hydroxy-butyl]-5-oxo-pyrrolidin-1-yl}-heptanoic acid], the IC50 at rat EP4 receptor is 22 nM; at rat EP2 receptor, more than 3200 nM; at human EP1 receptor, more than 3200 nM.

Regarding `O=C(O)CCCCCCN1C(=O)CC[C@@H]1CC[C@@H](O)Cc1cccc(C(F)(F)F)c1` [Example 2, 7-{2S-[3R-hydroxy-4-(3-trifluoromethyl-phenyl)-butyl]-5-oxo-pyrrolidin-1-yl}-heptanoic acid], the IC50 is 21 nM on rat EP4 receptor, 2760 nM at rat EP2 receptor and more than 3200 nM at human EP1 receptor.

Consider `O=C1CC[C@H](CCC(O)Cc2cccc(Cl)c2)N1CCCCCCc1nn[nH]n1` (stereo partly drawn) [Example 3, 5S-[4-(3-Chloro-phenyl)-3-hydroxy-butyl]-1-[6-(2H-tetrazol-5-yl)-hexyl]-pyrrolidin-2-one], for which the IC50 at rat EP4 receptor was 38 nM; at rat EP2 receptor it was 2370 nM; on human EP1 receptor, more than 3200 nM.

On to `O=C1CC[C@H](CC[C@@H](O)Cc2cccc(C(F)(F)F)c2)N1CCCCCCc1nn[nH]n1` [Example 4, 5S-[3R-Hydroxy-4-(3-trifluoromethyl-phenyl)-butyl]-1-[6-(2H-tetrazol-5-yl)-hexyl]-pyrrolidin-2-one], for which the IC50 on rat EP4 receptor is 33 nM; on rat EP2 receptor it was more than 3200 nM; at human EP1 receptor, more than 3200 nM.

`O=C1CCC(CCC(O)Cc2cccc(-c3ccccc3)c2)N1CCCCCCc1nn[nH]n1` (stereo not drawn) [Example 6, 5-(4-Biphenyl-3-yl-3-hydroxy-butyl)-1-[6-(2H-tetrazol-5-yl)-hexyl]-pyrrolidin-2-one]: the IC50 at rat EP4 receptor was 50 nM; at rat EP2 receptor, 3050 nM; on human EP1 receptor it was more than 3200 nM.

With `O=C(O)CCCCCCN1C(=O)CCC1CCC(O)Cc1ccccc1` (stereo not drawn) [Example 9, 7-(2-(3-hydroxy-4-phenyl-butyl)-5-oxo-pyrrolidin-1-yl)-heptanoic acid], the figures for the IC50 on rat EP4 receptor, on rat EP2 receptor and on human EP1 receptor were 54 nM, more than 3200 nM and more than 3200 nM, respectively.

A word on the IC50: it is the midpoint of a concentration-inhibition curve.
